# Reference: paper PMC8032764 (Scientific Reports, 2021)
# Assays:
# Angiotensin AT2 = test system: T1, Angiotensin AT2; assay: Cerep binding; set-up: species or system human; details: 10 μM; [125I]CGP 42112A; hum. recomb. (CHO)
# T1 construct: purchased Eurofins Cerep
# [1] = test system: T2, Prostanoid TP (TXA2/PGH2); assay: Cerep binding; set-up: species or system human; details: 10 μM; [3H]SQ 29548; hum. recomb. (HEK-293)
# T2 construct: host or cells: HEK-293
# [2] = test system: T3, Calcitonin gene related peptide (CGRP); assay: Cerep binding; set-up: species or system human; details: 10 μM; [125I]hCGRPα; hum. recomb. (CHO)
# T3 construct: purchased Eurofins Cerep
# Cannabinoid CB1 = test system: T4, Cannabinoid CB1; assay: Cerep binding; set-up: species or system human; details: 10 μM; [3H]CP 55940; hum. recomb. (CHO)
# T4 construct: host or cells: CHO
# Plasma protein binding = assay type: in vitro ADME
# Excerpt: Free plasma concentrations were used to estimate receptor occupancy.
# [3] = Pharmacokinetics, single intravenous dosing; assay type: in vivo; details: Wistar, rat, plasma, 4.3 mg/kg i.v., 2 male
structure (smiles),measurement,setting,value
Cc1onc(-c2ccc(F)cc2)c1COc1ccc(C(=O)N2CCS(=O)(=O)CC2)cn1 [basmisanil],% Inhibition,Angiotensin AT2,-3%
same,% Inhibition,[1],5%
same,% Inhibition,[2],-6%
same,% Inhibition,Cannabinoid CB1,16%
same,fraction unbound,"Plasma protein binding; human, plasma, primates, including humans",0.055
same,free fraction,"Plasma protein binding; primates, including humans",5.5%
same,fraction unbound,"Plasma protein binding; rat, rats",0.14
same,half-life,[3],1.2 h
same,clearance,[3]; read-out: Total CL,54 mL/min/kg
same,Vd,[3]; read-out: Vss,2.9 L/kg
